Data: the NIST ThermoML archive (doi:10.1016/j.jct.2014.11.007)

Experiment: mn = molality of the nth substance listed, in mol/kg
Details: 100 kPa, Liquid; for speed of sound: Frequency=3 MHz, Sing-around technique in a fixed-path interferometer; for mass density: Vibrating tube method

O=C([O-])Cc1ccccc1Nc1c(Cl)cccc1Cl.[Na+] [sodium diclofenac] + O
Details | mass density, 293.15 K [kg/m3] | mass density, 298.15 K [kg/m3] | mass density, 303.15 K [kg/m3] | mass density, 308.15 K [kg/m3] | mass density, 313.15 K [kg/m3] | speed of sound, 293.15 K [m/s] | speed of sound, 298.15 K [m/s] | speed of sound, 303.15 K [m/s] | speed of sound, 308.15 K [m/s] | speed of sound, 313.15 K [m/s]
m1 = 0.00165 | 998.454 | 997.297 | 995.899 | 994.285 | 992.465 | 1483.5 | 1497.6 | 1509.9 | 1520.6 | 1529.6
m1 = 0.00255 | 998.563 | 997.404 | 996.005 | 994.389 | 992.569 | 1483.7 | 1497.7 | 1510 | 1520.7 | 1529.7
m1 = 0.0027 | 998.582 | 997.423 | 996.023 | 994.407 | 992.587 | 1483.7 | 1497.7 | 1510 | 1520.7 | 1529.7
m1 = 0.00314 | 998.638 | 997.477 | 996.078 | 994.461 | 992.64 | 1483.7 | 1497.8 | 1510.1 | 1520.7 | 1529.8
m1 = 0.00352 | 998.687 | 997.527 | 996.125 | 994.508 | 992.687 | 1483.8 | 1497.8 | 1510.1 | 1520.8 | 1529.8
m1 = 0.00413 | 998.769 | 997.607 | 996.205 | 994.588 | 992.767 | 1483.9 | 1497.9 | 1510.2 | 1520.8 | 1529.8
m1 = 0.00504 | 998.896 | 997.733 | 996.33 | 994.71 | 992.886 | 1484 | 1498 | 1510.3 | 1520.9 | 1529.9
m1 = 0.00604 | 999.044 | 997.88 | 996.477 | 994.853 | 993.027 | 1484.1 | 1498.1 | 1510.4 | 1521 | 1530
m1 = 0.00698 | 999.192 | 998.027 | 996.618 | 994.995 | 993.169 | 1484.2 | 1498.2 | 1510.5 | 1521.1 | 1530.1
m1 = 0.00742 | 999.257 | 998.095 | 996.689 | 995.064 | 993.238 | 1484.3 | 1498.3 | 1510.6 | 1521.1 | 1530.1
